Measurements as given in US10344026B2, “Compositions and methods of targeting mutant K-ras” (NANTBIO, INC., priority 2017, dated 2019).

Experiments:
Type in all cases: cell-based
[1] = test system: Ishikawa (K-Ras wild type cell line); assay: Viability assay (CellTiterBlue, 72 hr) Ishikawa; details: Homo sapiens, GI50, CellTiterBlue, Ishikawa K-Ras wild-type
Summary of the method: (§1)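 Cells were seeded at 1000 per well and allowed 18 hr at 37 °C in CO2 before compound addition (final DMSO 0.5%). After 72 hr exposure, CellTiterBlue was added for 3 hr and fluorescence read at Ex550/Em590. GI50 values were calculated against DMSO (100%) and 100 uM tamoxifen (0%) controls.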

[2] = test system: U87-MG (K-Ras wild type cell line); assay: Viability assay (CellTiterBlue, 72 hr) U87-MG; details: Homo sapiens, U-87 MG, GI50, CellTiterBlue, U87-MG K-Ras wild-type
Summary of the method: as §1

[3] = test system: HCC827 (K-Ras wild type cell line); assay: Viability assay (CellTiterBlue, 72 hr) HCC827; details: Homo sapiens, GI50, CellTiterBlue, HCC827 K-Ras wild-type
Summary of the method: as §1

[4] = test system: A375 (K-Ras wild type cell line); assay: Viability assay (CellTiterBlue, 72 hr) A375; details: Homo sapiens, A-375, GI50, CellTiterBlue
Protocol: Viability assays were performed on exemplary compounds and Table 2 below lists exemplary results for selected compounds tested on K-Ras wild type cell lines (Ishikawa, U87-MG, HCC827, and A375) and various K-Ras mutant cell lines (Panc1-G12D; Panc10.05-G12D; HCT116-G31D). Results are expressed in μM and corresponding structures are shown in FIGS. 2A-2G and Examples 1-152, above.
Cells are counted and seeded at 1000 cells/36 ul medium/well into 384-well microplates. Cells are returned to 37° C. CO2 incubator for 18 hr. Drug is made as 200× in DMSO and diluted into medium to 10×. To each well is added 4 ul 10× drug, and plates are returned to the incubator. Final assay DMSO concentration is 0.5%. After 72 hr, 8 ul CellTiterBlue (Promega) is added to each well. After 3 hr, fluorescence (Ex550/Em590) is determined on the Victor Plate Reader (Perkin Elmer). Assay range is determined by DMSO control (100% viability) and 100 uM tamoxifen (0% viability). GI50 values are calculated using Graphpad Prism.

Panc1-G12D = assay: Viability assay (CellTiterBlue, 72 hr) Panc1; details: Homo sapiens, PANC-1, GI50, CellTiterBlue, Panc1 K-Ras G12D, read-out: 72 hr Cell Viability Panc1 (G12D)
Summary of the method: as §1

Panc10.05-G12D = assay: Viability assay (CellTiterBlue, 72 hr) Panc10.05; details: Homo sapiens, Panc1005, GI50, CellTiterBlue, Panc10.05 K-Ras G12D, read-out: 72 hr Cell Viability Panc10.05 (G12D)
Summary of the method: as §1

HCT116-G31D = assay: Viability assay (CellTiterBlue, 72 hr) HCT116; details: Homo sapiens, HCT-116, GI50, CellTiterBlue, HCT116 K-Ras G13D, read-out: 72 hr Cell Viability HCT116 (G13D)
Summary of the method: as §1

[5] = test system: phospho-ERK in HCC827 (Wild-type); assay: In-Cell Western phospho-ERK, HCC827; details: Homo sapiens, 1 h; HCC827, one hour treatment; read-out: In-Cell Western HCC827 (Wild-type) Erk (P)
Protocol: (§2) In-cell phosphorylation assays for Erk and Akt were performed on several of the compounds and exemplary results are shown in Table 3 below using HCC827 and A375 cell lines for wild type K-Ras and Panc1 and Panc10.05 cell lines for G12D K-Ras mutants. Results are expressed in μM and corresponding structures are shown in FIGS. 2A-2G and Examples 1-152, above.
(§3) Cells are seeded in complete medium into black sided, clear-bottom 384-well microplates at 3000 cells/[…]/well. Plates are returned to 37° C. CO2 incubator for 18 hr. Drug is made as 200× in DMSO and diluted into medium to 10×. To each well is added 4 ul 10× test article or controls, and plates are returned to the incubator. Final assay DMSO concentration is 0.5%. After one hour, cells are fixed in formaldehyde, rinsed & permeabilized with triton X-100, and blocked with BSA/Goat serum blocking solution. Primary phospho-Akt and phospho-ERK antibodies are added and plates are incubated overnight at 4° C. Plates are rinsed with Tween-20 wash buffer and secondary antibody (Goat anti-rabbit, Thermofisher) is added. After 2 hours, plates are rinsed in Tween-20 wash buffer, and then PBS. Plates are imaged on the Celigo (Nexcelom) and cellular fluorescence is quantitated. Full inhibition of phospho-Akt is achieved with 1 uM BEZ235 (Sellekchem), while full inhibition of phospho-ERK is achieved with 1 uM MEK Inhibitor II Calbiochem). EC50 values are calculated using Graphpad Prism.

[6] = test system: phospho-ERK in A375 (Wild-type); assay: In-Cell Western phospho-ERK, A375; details: Homo sapiens, A-375, 1 h; A375, one hour treatment; read-out: In-Cell Western A375 (Wild-type) Erk (P)
Protocol: as §2, §3

[7] = test system: phospho-Akt in A375 (Wild-type); assay: In-Cell Western phospho-Akt, A375; details: Homo sapiens, A-375, 1 h; A375, one hour treatment; read-out: In-Cell Western A375 (Wild-type) Akt (P)
Protocol: as §2, §3

[8] = test system: phospho-ERK in Panc1 (G12D); assay: In-Cell Western phospho-ERK, Panc1; details: Homo sapiens, PANC-1, 1 h; Panc1, one hour treatment; read-out: In-Cell Western Panc1 (G12D) Erk (P)
Summary of the method: (§4)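 Cells were seeded at 3000 cells/well, incubated 18 hr at 37° C, then treated with compound for 1 hr (0.5% DMSO final). After fixation, permeabilization and blocking, phospho-Akt or phospho-ERK antibodies were applied overnight at 4° C, followed by secondary antibody; cellular fluorescence was imaged and EC50 calculated.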

[9] = test system: phospho-Akt in Panc1 (G12D); assay: In-Cell Western phospho-Akt, Panc1; details: Homo sapiens, PANC-1, 1 h; Panc1, one hour treatment; read-out: In-Cell Western Panc1 (G12D) Akt (P)
Summary of the method: as §4

[10] = test system: phospho-ERK in Panc10.05 (G12D); assay: In-Cell Western phospho-ERK, Panc10.05; details: Homo sapiens, Panc1005, 1 h; Panc10.05, one hour treatment; read-out: In-Cell Western Panc10.05 (G12D) Erk (P)
Summary of the method: as §4

[11] = test system: phospho-Akt in Panc10.05 (G12D); assay: In-Cell Western phospho-Akt, Panc10.05; details: Homo sapiens, Panc1005, 1 h; Panc10.05, one hour treatment; read-out: In-Cell Western Panc10.05 (G12D) Akt (P)
Protocol: as §2, §3

K-Ras G12D = target: T1, K-Ras G12D (Homo sapiens, UniProt P01116, G12D); assay: G-LISA Ras activation, 293H cells transfected with G12D mutant; details: compound 1 hour
T1 construct: expressed in transfected cells; host or cells: 293H cells
Summary of the method: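 Active Ras was quantified by G-LISA in lysates of 293H cells made the day after transfection with wild-type, G12D or G12V Ras plasmid (5 μg). Compounds were applied at 3.125-25 μM for 1 h; only the wild-type cells got a 2-min 100 ng/ml EGF pulse before lysis.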

T1 sequence (P01116 whole entry G12D): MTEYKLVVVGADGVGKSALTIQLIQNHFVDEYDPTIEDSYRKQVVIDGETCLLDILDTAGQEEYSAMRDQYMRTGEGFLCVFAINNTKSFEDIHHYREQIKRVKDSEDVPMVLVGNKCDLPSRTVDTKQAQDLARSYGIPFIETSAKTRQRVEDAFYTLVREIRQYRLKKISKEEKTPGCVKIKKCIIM

Cn1nc(-c2ccccc2)cc1C(=O)Nc1nc(-c2ccc3c(c2)CCC(=O)N3)cs1 [Compound 48, 1-methyl-N-(4-(2-oxo-1,2,3,4-tetrahydroquinolin-6-yl)thiazol-2-yl)-3-phenyl-1H-pyrazole-5-carboxamide]
> 25 µM: IC50 [1] | IC50 [2] | IC50 [3] | IC50 [4] | IC50 (Panc1-G12D) | IC50 (Panc10.05-G12D) | IC50 (HCT116-G31D) | EC50 [5] | EC50 [6] | EC50 [7] | EC50 [8] | EC50 [9] | EC50 [10] | EC50 [11]

Cc1nc(C)c(C(=O)Nc2nc(-c3ccc4c(c3)CCC(=O)N4CCC(=O)N(C)C)cs2)o1 [Compound 103, N-(4-(1-(3-(dimethylamino)-3-oxopropyl)-2-oxo-1,2,3,4-tetrahydroquinolin-6-yl)thiazol-2-yl)-2,4-dimethyloxazole-5-carboxamide]
14.9 µM: IC50 (K-Ras G12D)
29 µM: EC50 [6]
14 µM: EC50 [5]
25 µM: IC50 (HCT116-G31D)
5 µM: IC50 (Panc10.05-G12D)
> 25 µM: IC50 [1] | IC50 [2] | IC50 [3] | IC50 [4] | IC50 (Panc1-G12D) | EC50 [7] | EC50 [8] | EC50 [9] | EC50 [10] | EC50 [11]

CCc1nc(C)c(C(=O)Nc2nc(-c3ccc4c(c3)CCC(=O)N4C(C)c3cccnc3)cs2)o1 (stereo not shown) [Compound 102, 2-ethyl-4-methyl-N-(4-(2-oxo-1-(1-(pyridin-3-yl)ethyl)-1,2,3,4-tetrahydroquinolin-6-yl)thiazol-2-yl)oxazole-5-carboxamide]
8.2 µM: IC50 (K-Ras G12D)
26 µM: EC50 [6]
11 µM: EC50 [5]
> 25 µM: IC50 [1] | IC50 [2] | IC50 [3] | IC50 [4] | IC50 (Panc1-G12D) | EC50 [7] | EC50 [9] | EC50 [11]
19 µM: EC50 [10]
5 µM: IC50 (Panc10.05-G12D)
8 µM: EC50 [8]
13 µM: IC50 (HCT116-G31D)

CCc1nc(C)c(C(=O)Nc2nc(-c3ccc4c(c3)CCC(=O)N4Cc3cncnc3)cs2)o1 [Compound 104, 2-ethyl-4-methyl-N-(4-(2-oxo-1-(pyrimidin-5-ylmethyl)-1,2,3,4-tetrahydroquinolin-6-yl)thiazol-2-yl)oxazole-5-carboxamide]
5 µM: IC50 (HCT116-G31D)
17 µM: IC50 (Panc10.05-G12D)
> 25 µM: IC50 [1] | IC50 [2] | IC50 [3] | EC50 [5] | EC50 [6] | EC50 [7] | EC50 [8] | EC50 [9] | EC50 [10] | EC50 [11]
6 µM: IC50 [4]
22 µM: IC50 (Panc1-G12D)

CCn1nc(C2CC2)cc1C(=O)Nc1nc(-c2ccc3c(c2)CCC(=O)N3)cs1 [Compound 45, 3-cyclopropyl-1-ethyl-N-(4-(2-oxo-1,2,3,4-tetrahydroquinolin-6-yl)thiazol-2-yl)-1H-pyrazole-5-carboxamide]
6 µM: EC50 [10]
11 µM: EC50 [11]
3 µM: IC50 (Panc10.05-G12D)
8.8 µM: IC50 (K-Ras G12D)
> 25 µM: IC50 [1] | IC50 [2] | IC50 [3] | IC50 [4] | IC50 (Panc1-G12D) | IC50 (HCT116-G31D) | EC50 [5] | EC50 [6] | EC50 [7] | EC50 [8] | EC50 [9]

Cn1nc(C(F)(F)F)cc1C(=O)Nc1nc(-c2ccc3c(c2)CCC(=O)N3)cs1 [Compound 50, 1-methyl-N-(4-(2-oxo-1,2,3,4-tetrahydroquinolin-6-yl)thiazol-2-yl)-3-(trifluoromethyl)-1H-pyrazole-5-carboxamide]
> 25 µM: IC50 [1] | IC50 [2] | IC50 [3] | IC50 [4] | IC50 (Panc1-G12D) | IC50 (Panc10.05-G12D) | IC50 (HCT116-G31D) | EC50 [6] | EC50 [7] | EC50 [8] | EC50 [9] | EC50 [10] | EC50 [11]
13 µM: EC50 [5]

Cc1nc(C(=O)Nc2nc(-c3ccc4c(c3)CCC(=O)N4)cs2)c(C)s1 [Compound 20, 2,5-dimethyl-N-(4-(2-oxo-1,2,3,4-tetrahydroquinolin-6-yl)thiazol-2-yl)thiazole-4-carboxamide]
> 25 µM: IC50 [1] | IC50 [2] | IC50 [3] | IC50 [4] | IC50 (Panc1-G12D) | IC50 (Panc10.05-G12D) | IC50 (HCT116-G31D) | EC50 [5] | EC50 [6] | EC50 [7] | EC50 [8] | EC50 [9] | EC50 [10] | EC50 [11]

Cc1nc(C)c(C(=O)Nc2nc(-c3ccc4c(c3)CCC(=O)N4CCCN(C)C)cs2)o1 [Compound 98, N-(4-(1-(3-(dimethylamino)propyl)-2-oxo-1,2,3,4-tetrahydroquinolin-6-yl)thiazol-2-yl)-2,4-dimethyloxazole-5-carboxamide]
5 µM: IC50 [3]
11 µM: IC50 [1]
> 25 µM: IC50 [2] | IC50 (Panc10.05-G12D) | IC50 (HCT116-G31D) | EC50 [5] | EC50 [6] | EC50 [7] | EC50 [8] | EC50 [9] | EC50 [10] | EC50 [11]
13 µM: IC50 (Panc1-G12D)
9 µM: IC50 [4]
